{"source": "patent US12227500B2", "about": "“Substituted pyrrolo[2,3-b]pyridines for suppressing toxic endoplasmic reticulum stress” (THE TRUSTEES OF COLUMBIA UNIVERSITY IN THE CITY OF NEW YORK, priority 2018, dated 2025)", "assay_in_all_cases": "Radiolabeled ATP kinase assay, panel of 371 kinases (Table S6)", "type_in_all_cases": "biochemical", "key": {"[1]": {"biological_target": "T1, panel of 371 human kinases (Homo sapiens, UniProt Q13177)", "T1 construct": "purchased Reaction Biology Corp", "conditions": "PAK2; 0.1 μM; 10 μM ATP; read-out: % Enzyme Activity (relative to DMSO controls)", "excerpt": "(§1) ; FIG. 38C). […]. Further targeted analyses, such as genetic knock-down or knock-out, may be warranted to parse the role of these additional kinases in our model of neurodegeneration."}, "[2]": {"biological_target": "T2, panel of 371 human kinases (Homo sapiens, UniProt Q12866)", "T2 construct": "purchased Reaction Biology Corp", "conditions": "c-MER; 0.1 μM; 10 μM ATP; read-out: % Enzyme Activity (relative to DMSO controls)", "excerpt": "as §1"}, "[3]": {"biological_target": "T3, panel of 371 human kinases (Homo sapiens, UniProt P15735)", "T3 construct": "purchased Reaction Biology Corp", "conditions": "PHKg2; 0.1 μM; 10 μM ATP; read-out: % Enzyme Activity (relative to DMSO controls)", "excerpt": "as §1"}, "[4]": {"biological_target": "T4, panel of 371 human kinases (Homo sapiens, UniProt Q00534)", "T4 construct": "purchased Reaction Biology Corp", "T4 sequence (Q00534 whole entry)": "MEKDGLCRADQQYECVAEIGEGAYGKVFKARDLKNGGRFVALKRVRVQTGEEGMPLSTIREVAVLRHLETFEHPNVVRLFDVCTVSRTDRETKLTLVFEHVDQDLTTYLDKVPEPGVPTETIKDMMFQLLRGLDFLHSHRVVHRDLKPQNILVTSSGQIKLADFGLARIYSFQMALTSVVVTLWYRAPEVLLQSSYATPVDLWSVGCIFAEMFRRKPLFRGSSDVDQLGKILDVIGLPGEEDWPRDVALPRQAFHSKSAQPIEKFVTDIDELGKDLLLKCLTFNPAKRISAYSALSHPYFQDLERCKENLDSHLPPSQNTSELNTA", "conditions": "0.1 μM, 10 μM ATP, read-out: % Enzyme Activity (relative to DMSO controls)", "excerpt": "as §1"}, "[5]": {"biological_target": "T5, panel of 371 human kinases (Homo sapiens, UniProt Q86V86)", "T5 construct": "purchased Reaction Biology Corp", "conditions": "PIM3; 0.1 μM; 10 μM ATP; read-out: % Enzyme Activity (relative to DMSO controls)", "excerpt": "as §1"}, "[6]": {"biological_target": "T6, panel of 371 human kinases (Homo sapiens, UniProt P27361)", "T6 construct": "purchased Reaction Biology Corp", "T6 sequence (P27361 whole entry)": "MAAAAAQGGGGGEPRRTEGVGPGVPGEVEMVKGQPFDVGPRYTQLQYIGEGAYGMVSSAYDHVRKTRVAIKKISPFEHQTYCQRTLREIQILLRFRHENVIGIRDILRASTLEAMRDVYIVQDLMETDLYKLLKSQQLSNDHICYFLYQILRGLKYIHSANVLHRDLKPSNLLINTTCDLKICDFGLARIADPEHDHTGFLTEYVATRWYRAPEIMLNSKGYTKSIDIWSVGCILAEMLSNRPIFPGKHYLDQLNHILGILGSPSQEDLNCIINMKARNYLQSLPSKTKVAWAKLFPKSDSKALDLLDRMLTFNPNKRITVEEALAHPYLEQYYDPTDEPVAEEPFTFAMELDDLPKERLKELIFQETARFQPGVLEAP", "conditions": "ERK1; 0.1 μM; 10 μM ATP; read-out: % Enzyme Activity (relative to DMSO controls)", "excerpt": "as §1"}, "[7]": {"biological_target": "T7, panel of 371 human kinases (Homo sapiens, UniProt Q9BUB5)", "T7 construct": "purchased Reaction Biology Corp", "conditions": "MNK1; 0.1 μM; 10 μM ATP; read-out: % Enzyme Activity (relative to DMSO controls)", "excerpt": "as §1"}, "[8]": {"biological_target": "T8, panel of 371 human kinases (Homo sapiens, UniProt P22694)", "T8 construct": "purchased Reaction Biology Corp", "conditions": "PKAcb; 0.1 μM; 10 μM ATP; read-out: % Enzyme Activity (relative to DMSO controls)", "excerpt": "as §1"}, "[9]": {"biological_target": "T9, panel of 371 human kinases (Homo sapiens, UniProt Q86Z02)", "T9 construct": "purchased Reaction Biology Corp", "conditions": "HIPK1; 0.1 μM; 10 μM ATP; read-out: % Enzyme Activity (relative to DMSO controls)", "excerpt": "as §1"}, "[10]": {"biological_target": "T10, panel of 371 human kinases (Homo sapiens, UniProt Q13557)", "T10 construct": "purchased Reaction Biology Corp", "conditions": "CAMK2d; 0.1 μM; 10 μM ATP; read-out: % Enzyme Activity (relative to DMSO controls)", "excerpt": "as §1"}, "[11]": {"biological_target": "T11, panel of 371 human kinases (Homo sapiens, UniProt P31751)", "T11 construct": "purchased Reaction Biology Corp", "conditions": "AKT2; 0.1 μM; 10 μM ATP; read-out: % Enzyme Activity (relative to DMSO controls)", "excerpt": "as §1"}, "[12]": {"biological_target": "T12, panel of 371 human kinases (Homo sapiens, UniProt P09619)", "T12 construct": "purchased Reaction Biology Corp", "conditions": "PDGFRb; 0.1 μM; 10 μM ATP; read-out: % Enzyme Activity (relative to DMSO controls)", "excerpt": "as §1"}, "[13]": {"biological_target": "T13, panel of 371 human kinases (Homo sapiens, UniProt P08069)", "T13 construct": "purchased Reaction Biology Corp", "T13 sequence (P08069 31-1367)": "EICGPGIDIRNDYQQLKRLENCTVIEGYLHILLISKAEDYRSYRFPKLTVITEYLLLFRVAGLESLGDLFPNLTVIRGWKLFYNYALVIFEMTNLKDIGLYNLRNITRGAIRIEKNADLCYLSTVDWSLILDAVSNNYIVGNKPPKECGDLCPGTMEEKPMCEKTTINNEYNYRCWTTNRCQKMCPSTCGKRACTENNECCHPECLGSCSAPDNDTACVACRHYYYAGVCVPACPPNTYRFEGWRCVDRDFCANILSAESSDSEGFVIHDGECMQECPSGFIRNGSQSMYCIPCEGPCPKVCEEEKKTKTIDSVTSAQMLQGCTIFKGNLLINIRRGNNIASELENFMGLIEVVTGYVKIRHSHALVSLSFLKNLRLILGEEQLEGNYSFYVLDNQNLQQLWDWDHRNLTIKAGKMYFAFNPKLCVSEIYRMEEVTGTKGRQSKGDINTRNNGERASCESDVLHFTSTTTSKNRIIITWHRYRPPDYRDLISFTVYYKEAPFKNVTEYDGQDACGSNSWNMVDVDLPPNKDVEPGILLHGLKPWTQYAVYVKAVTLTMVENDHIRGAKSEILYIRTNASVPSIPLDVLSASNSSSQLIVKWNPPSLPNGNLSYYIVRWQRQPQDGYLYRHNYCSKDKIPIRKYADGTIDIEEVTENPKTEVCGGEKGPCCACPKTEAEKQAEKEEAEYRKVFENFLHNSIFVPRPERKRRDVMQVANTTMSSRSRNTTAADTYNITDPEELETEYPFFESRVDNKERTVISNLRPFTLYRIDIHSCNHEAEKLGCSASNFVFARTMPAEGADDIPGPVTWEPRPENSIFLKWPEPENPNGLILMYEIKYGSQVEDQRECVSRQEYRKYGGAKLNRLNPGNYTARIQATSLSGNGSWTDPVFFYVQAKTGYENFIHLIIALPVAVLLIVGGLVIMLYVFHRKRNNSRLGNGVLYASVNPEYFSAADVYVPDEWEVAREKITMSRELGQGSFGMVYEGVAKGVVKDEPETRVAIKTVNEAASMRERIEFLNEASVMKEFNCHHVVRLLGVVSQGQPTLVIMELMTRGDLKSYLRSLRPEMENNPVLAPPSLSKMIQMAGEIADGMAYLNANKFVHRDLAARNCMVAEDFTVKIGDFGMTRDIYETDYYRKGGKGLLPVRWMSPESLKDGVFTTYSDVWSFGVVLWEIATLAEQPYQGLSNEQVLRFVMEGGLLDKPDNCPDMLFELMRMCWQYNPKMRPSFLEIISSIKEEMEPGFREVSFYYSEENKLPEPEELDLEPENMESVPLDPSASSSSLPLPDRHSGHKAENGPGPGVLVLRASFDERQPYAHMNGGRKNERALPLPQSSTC", "conditions": "IGF1R; 0.1 μM; 10 μM ATP; read-out: % Enzyme Activity (relative to DMSO controls)", "excerpt": "as §1"}, "[14]": {"biological_target": "T14, panel of 371 human kinases (Homo sapiens, UniProt P68400)", "T14 construct": "purchased Reaction Biology Corp", "conditions": "CK2a; 0.1 μM; 10 μM ATP; read-out: % Enzyme Activity (relative to DMSO controls)", "excerpt": "as §1"}, "[15]": {"biological_target": "T15, panel of 371 human kinases (Homo sapiens, UniProt Q09013)", "T15 construct": "purchased Reaction Biology Corp", "T15 sequence (Q09013 whole entry)": "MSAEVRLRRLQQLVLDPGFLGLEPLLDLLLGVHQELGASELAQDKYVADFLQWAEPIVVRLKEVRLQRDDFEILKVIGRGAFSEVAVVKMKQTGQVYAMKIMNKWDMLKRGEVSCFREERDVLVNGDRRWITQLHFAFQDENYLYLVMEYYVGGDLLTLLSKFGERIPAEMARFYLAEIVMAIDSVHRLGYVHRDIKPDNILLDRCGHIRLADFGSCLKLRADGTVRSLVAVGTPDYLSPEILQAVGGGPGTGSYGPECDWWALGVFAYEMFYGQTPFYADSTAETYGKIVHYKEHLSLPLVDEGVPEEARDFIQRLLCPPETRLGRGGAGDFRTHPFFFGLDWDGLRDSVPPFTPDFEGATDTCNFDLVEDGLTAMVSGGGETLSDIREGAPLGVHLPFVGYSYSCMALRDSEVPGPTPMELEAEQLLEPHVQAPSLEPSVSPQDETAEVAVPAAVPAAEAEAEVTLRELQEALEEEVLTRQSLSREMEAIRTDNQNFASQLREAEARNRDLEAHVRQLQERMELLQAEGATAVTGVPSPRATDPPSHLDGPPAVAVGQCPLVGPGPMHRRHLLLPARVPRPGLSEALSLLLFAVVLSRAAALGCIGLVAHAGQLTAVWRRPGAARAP", "conditions": "DMPK; 0.1 μM; 10 μM ATP; read-out: % Enzyme Activity (relative to DMSO controls)", "excerpt": "as §1"}, "[16]": {"biological_target": "T16, panel of 371 human kinases (Homo sapiens, UniProt P78368)", "T16 construct": "purchased Reaction Biology Corp", "conditions": "CK1g2; 0.1 μM; 10 μM ATP; read-out: % Enzyme Activity (relative to DMSO controls)", "excerpt": "as §1"}, "[17]": {"biological_target": "T17, panel of 371 human kinases (Homo sapiens, UniProt Q8TF76)", "T17 construct": "purchased Reaction Biology Corp", "conditions": "Haspin; 0.1 μM; 10 μM ATP; read-out: % Enzyme Activity (relative to DMSO controls)", "excerpt": "as §1"}, "[18]": {"biological_target": "T18, panel of 371 human kinases (Homo sapiens, UniProt O96017)", "T18 construct": "purchased Reaction Biology Corp", "conditions": "CHK2; 0.1 μM; 10 μM ATP; read-out: % Enzyme Activity (relative to DMSO controls)", "excerpt": "as §1"}, "[19]": {"biological_target": "T19, panel of 371 human kinases (Homo sapiens, UniProt P52333)", "T19 construct": "purchased Reaction Biology Corp", "conditions": "JAK3; 0.1 μM; 10 μM ATP; read-out: % Enzyme Activity (relative to DMSO controls)", "excerpt": "as §1"}, "[20]": {"biological_target": "T20, panel of 371 human kinases (Homo sapiens, UniProt Q9UL54)", "T20 construct": "purchased Reaction Biology Corp", "conditions": "TAOK2/TAO1; 0.1 μM; 10 μM ATP; read-out: % Enzyme Activity (relative to DMSO controls)", "excerpt": "as §1"}, "[21]": {"biological_target": "T21, panel of 371 human kinases (Homo sapiens, UniProt O00141)", "T21 construct": "purchased Reaction Biology Corp", "T21 sequence (O00141 whole entry)": "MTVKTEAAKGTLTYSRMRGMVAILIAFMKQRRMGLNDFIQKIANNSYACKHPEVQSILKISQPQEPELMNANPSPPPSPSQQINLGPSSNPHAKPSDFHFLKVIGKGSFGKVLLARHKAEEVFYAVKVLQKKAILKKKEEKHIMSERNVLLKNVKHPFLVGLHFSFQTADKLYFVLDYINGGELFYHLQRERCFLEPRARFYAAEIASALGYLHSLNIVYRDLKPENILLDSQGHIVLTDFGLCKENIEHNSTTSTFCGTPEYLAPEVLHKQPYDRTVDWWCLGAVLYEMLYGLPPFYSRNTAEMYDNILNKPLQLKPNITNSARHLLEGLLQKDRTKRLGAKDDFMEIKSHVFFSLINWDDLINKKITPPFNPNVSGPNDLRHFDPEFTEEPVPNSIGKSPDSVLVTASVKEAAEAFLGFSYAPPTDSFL", "conditions": "SGK1; 0.1 μM; 10 μM ATP; read-out: % Enzyme Activity (relative to DMSO controls)", "excerpt": "as §1"}, "[22]": {"biological_target": "T22, panel of 371 human kinases (Homo sapiens, UniProt P17948)", "T22 construct": "purchased Reaction Biology Corp", "T22 sequence (P17948 27-1338)": "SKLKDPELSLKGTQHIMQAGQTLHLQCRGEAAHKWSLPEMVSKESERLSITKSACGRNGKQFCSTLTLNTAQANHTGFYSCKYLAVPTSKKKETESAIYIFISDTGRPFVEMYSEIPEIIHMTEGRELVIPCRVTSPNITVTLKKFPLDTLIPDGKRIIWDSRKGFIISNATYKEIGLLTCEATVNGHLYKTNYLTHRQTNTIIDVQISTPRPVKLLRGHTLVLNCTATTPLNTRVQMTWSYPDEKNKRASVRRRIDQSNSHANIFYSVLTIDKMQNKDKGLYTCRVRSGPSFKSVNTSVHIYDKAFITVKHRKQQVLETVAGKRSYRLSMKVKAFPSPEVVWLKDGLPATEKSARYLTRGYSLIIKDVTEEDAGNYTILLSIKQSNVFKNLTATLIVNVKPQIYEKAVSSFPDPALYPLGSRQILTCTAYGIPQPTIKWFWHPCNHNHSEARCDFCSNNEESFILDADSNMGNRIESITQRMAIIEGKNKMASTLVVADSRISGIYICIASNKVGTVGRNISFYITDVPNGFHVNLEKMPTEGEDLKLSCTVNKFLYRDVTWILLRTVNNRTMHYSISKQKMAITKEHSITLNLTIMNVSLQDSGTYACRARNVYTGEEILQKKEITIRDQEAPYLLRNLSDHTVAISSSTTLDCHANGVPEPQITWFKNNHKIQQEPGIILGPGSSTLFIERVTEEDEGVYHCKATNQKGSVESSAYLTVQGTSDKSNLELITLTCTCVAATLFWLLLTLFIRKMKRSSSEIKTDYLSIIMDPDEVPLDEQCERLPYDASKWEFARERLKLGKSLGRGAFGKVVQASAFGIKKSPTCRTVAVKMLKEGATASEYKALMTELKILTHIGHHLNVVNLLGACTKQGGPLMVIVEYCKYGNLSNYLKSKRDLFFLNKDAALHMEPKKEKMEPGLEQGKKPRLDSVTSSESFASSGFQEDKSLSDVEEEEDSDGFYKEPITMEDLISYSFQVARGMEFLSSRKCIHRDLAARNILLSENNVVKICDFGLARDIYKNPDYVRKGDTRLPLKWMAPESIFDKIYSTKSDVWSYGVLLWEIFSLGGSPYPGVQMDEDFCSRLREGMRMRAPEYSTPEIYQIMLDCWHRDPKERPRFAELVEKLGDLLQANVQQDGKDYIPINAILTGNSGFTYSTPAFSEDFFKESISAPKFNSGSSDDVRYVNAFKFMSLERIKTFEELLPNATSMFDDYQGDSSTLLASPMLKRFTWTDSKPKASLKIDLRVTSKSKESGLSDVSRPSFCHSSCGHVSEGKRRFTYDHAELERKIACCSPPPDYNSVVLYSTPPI", "conditions": "FLT1/VEGFR1; 0.1 μM; 10 μM ATP; read-out: % Enzyme Activity (relative to DMSO controls)", "excerpt": "as §1"}, "[23]": {"biological_target": "T23, panel of 371 human kinases (Homo sapiens, UniProt Q9UEW8)", "T23 construct": "purchased Reaction Biology Corp", "conditions": "STK39/STLK3; 0.1 μM; 10 μM ATP; read-out: % Enzyme Activity (relative to DMSO controls)", "excerpt": "as §1"}, "[24]": {"biological_target": "T24, panel of 371 human kinases (Homo sapiens, UniProt O96013)", "T24 construct": "purchased Reaction Biology Corp", "T24 sequence (O96013 whole entry)": "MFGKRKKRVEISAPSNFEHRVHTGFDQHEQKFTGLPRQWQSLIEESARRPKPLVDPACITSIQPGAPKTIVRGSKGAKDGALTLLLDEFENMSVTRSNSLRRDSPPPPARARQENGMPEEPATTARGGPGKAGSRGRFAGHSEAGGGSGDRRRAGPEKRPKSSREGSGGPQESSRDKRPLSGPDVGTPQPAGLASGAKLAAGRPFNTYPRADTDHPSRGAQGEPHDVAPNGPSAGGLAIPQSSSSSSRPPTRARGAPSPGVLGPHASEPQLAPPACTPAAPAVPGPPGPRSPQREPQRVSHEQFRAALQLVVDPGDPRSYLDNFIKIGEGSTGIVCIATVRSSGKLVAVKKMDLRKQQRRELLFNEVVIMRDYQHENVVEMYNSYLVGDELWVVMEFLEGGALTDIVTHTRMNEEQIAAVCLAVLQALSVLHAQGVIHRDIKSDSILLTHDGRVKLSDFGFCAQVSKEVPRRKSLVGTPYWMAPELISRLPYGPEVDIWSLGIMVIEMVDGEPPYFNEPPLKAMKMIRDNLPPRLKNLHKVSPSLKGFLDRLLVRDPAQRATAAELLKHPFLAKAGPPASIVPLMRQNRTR", "conditions": "PAK4; 0.1 μM; 10 μM ATP; read-out: % Enzyme Activity (relative to DMSO controls)", "excerpt": "as §1"}}, "note": "Read-outs that look alike come from different tables or passages of the source.", "data": [{"smiles": "OCCN1CCN(Cc2ccc(-c3cnc4[nH]cc(-c5cccc(Cl)c5)c4c3)cc2)CC1", "note": "[Compound 12k, 2-(4-(4-(3-(3-Chlorophenyl)-1H-pyrrolo[2,3-b]pyridin-5-yl)benzyl)piperazin-1-yl)ethan-1-ol]", "values": [{"measurement": "remaining activity at 0.1 µM", "setting": "[1]", "result": 85, "unit": "%"}, {"measurement": "remaining activity at 0.1 µM", "setting": "[2]", "result": 75.1, "unit": "%"}, {"measurement": "remaining activity at 0.1 µM", "setting": "[3]", "result": 95.2, "unit": "%"}, {"measurement": "remaining activity at 0.1 µM", "setting": "[4]; CDK6/cyclin D1", "result": 30.7, "unit": "%"}, {"measurement": "remaining activity at 0.1 µM", "setting": "[4]; CDK6/cyclin D3", "result": 68.2, "unit": "%"}, {"measurement": "remaining activity at 0.1 µM", "setting": "[5]", "result": 106, "unit": "%"}, {"measurement": "remaining activity at 0.1 µM", "setting": "[6]", "result": 92.8, "unit": "%"}, {"measurement": "remaining activity at 0.1 µM", "setting": "[7]", "result": 90.7, "unit": "%"}, {"measurement": "remaining activity at 0.1 µM", "setting": "[8]", "result": 92.6, "unit": "%"}, {"measurement": "remaining activity at 0.1 µM", "setting": "[9]", "result": 96, "unit": "%"}, {"measurement": "remaining activity at 0.1 µM", "setting": "[10]", "result": 81.3, "unit": "%"}, {"measurement": "remaining activity at 0.1 µM", "setting": "[11]", "result": 103, "unit": "%"}, {"measurement": "remaining activity at 0.1 µM", "setting": "[12]", "result": 96.3, "unit": "%"}, {"measurement": "remaining activity at 0.1 µM", "setting": "[13]", "result": 95.4, "unit": "%"}, {"measurement": "remaining activity at 0.1 µM", "setting": "[14]", "result": 110, "unit": "%"}, {"measurement": "remaining activity at 0.1 µM", "setting": "[15]", "result": 97.7, "unit": "%"}, {"measurement": "remaining activity at 0.1 µM", "setting": "[16]", "result": 102, "unit": "%"}, {"measurement": "remaining activity at 0.1 µM", "setting": "[17]", "result": 75, "unit": "%"}, {"measurement": "remaining activity at 0.1 µM", "setting": "[18]", "result": 93.5, "unit": "%"}, {"measurement": "remaining activity at 0.1 µM", "setting": "[19]", "result": 76.2, "unit": "%"}, {"measurement": "remaining activity at 0.1 µM", "setting": "[20]", "result": 103, "unit": "%"}, {"measurement": "remaining activity at 0.1 µM", "setting": "[21]", "result": 99.6, "unit": "%"}, {"measurement": "remaining activity at 0.1 µM", "setting": "[22]", "result": 90.9, "unit": "%"}, {"measurement": "remaining activity at 0.1 µM", "setting": "[23]", "result": 77.3, "unit": "%"}, {"measurement": "remaining activity at 0.1 µM", "setting": "[24]", "result": 93.8, "unit": "%"}]}, {"smiles": "CN1CCN(Cc2ccc(-c3cnc4[nH]cc(-c5ccc6[nH]ccc6c5)c4c3)cc2)CC1", "note": "[Compound 1, 3-(1H-Indol-5-yl)-5-(4-((4-methylpiperazin-1-yl)methyl)phenyl)-1H-pyrrolo[2,3-b]pyridine, reference compound]", "values": [{"measurement": "remaining activity at 0.1 µM", "setting": "[1]", "result": 97.1, "unit": "%"}, {"measurement": "remaining activity at 0.1 µM", "setting": "[2]", "result": 81.2, "unit": "%"}, {"measurement": "remaining activity at 0.1 µM", "setting": "[3]", "result": 86, "unit": "%"}, {"measurement": "remaining activity at 0.1 µM", "setting": "[4]; CDK6/cyclin D1", "result": 63.1, "unit": "%"}, {"measurement": "remaining activity at 0.1 µM", "setting": "[4]; CDK6/cyclin D3", "result": 92.2, "unit": "%"}, {"measurement": "remaining activity at 0.1 µM", "setting": "[5]", "result": 92.9, "unit": "%"}, {"measurement": "remaining activity at 0.1 µM", "setting": "[6]", "result": 86, "unit": "%"}, {"measurement": "remaining activity at 0.1 µM", "setting": "[7]", "result": 94, "unit": "%"}, {"measurement": "remaining activity at 0.1 µM", "setting": "[8]", "result": 106, "unit": "%"}, {"measurement": "remaining activity at 0.1 µM", "setting": "[9]", "result": 106, "unit": "%"}, {"measurement": "remaining activity at 0.1 µM", "setting": "[10]", "result": 97, "unit": "%"}, {"measurement": "remaining activity at 0.1 µM", "setting": "[11]", "result": 96.7, "unit": "%"}, {"measurement": "remaining activity at 0.1 µM", "setting": "[12]", "result": 94.2, "unit": "%"}, {"measurement": "remaining activity at 0.1 µM", "setting": "[13]", "result": 95.4, "unit": "%"}, {"measurement": "remaining activity at 0.1 µM", "setting": "[14]", "result": 100, "unit": "%"}, {"measurement": "remaining activity at 0.1 µM", "setting": "[15]", "result": 96.6, "unit": "%"}, {"measurement": "remaining activity at 0.1 µM", "setting": "[16]", "result": 102, "unit": "%"}, {"measurement": "remaining activity at 0.1 µM", "setting": "[17]", "result": 128, "unit": "%"}, {"measurement": "remaining activity at 0.1 µM", "setting": "[18]", "result": 85.2, "unit": "%"}, {"measurement": "remaining activity at 0.1 µM", "setting": "[19]", "result": 90.9, "unit": "%"}, {"measurement": "remaining activity at 0.1 µM", "setting": "[20]", "result": 104, "unit": "%"}, {"measurement": "remaining activity at 0.1 µM", "setting": "[21]", "result": 96, "unit": "%"}, {"measurement": "remaining activity at 0.1 µM", "setting": "[22]", "result": 88.2, "unit": "%"}, {"measurement": "remaining activity at 0.1 µM", "setting": "[23]", "result": 90.7, "unit": "%"}, {"measurement": "remaining activity at 0.1 µM", "setting": "[24]", "result": 88, "unit": "%"}]}]}
